The term IC50 denotes the concentration needed to halve the response being measured. Read a high IC50 as a need for much substance.

This is an account of results in ChEMBL document CHEMBL3297669, “Suvanine sesterterpenes and deacyl irciniasulfonic acids from a tropical Coscinoderma sp. sponge” (J Nat Prod, 2014).

Values after ≈ are worked out from the molar mass of the structure shown.

The test system of one assay is Salmonella enterica. In words: Antimicrobial activity against Salmonella enterica ATCC 14028 after 24 hrs by two-fold broth dilution method. To be noted: ATCC 14028, 24 h. The assay is classed as functional. (In general: Dilution methods test growth across graded concentrations, often in twofold steps.)
Another assay has as its system Proteus hauseri. Kind of assay: Antimicrobial activity against Proteus hauseri NBRC 3851 after 24 hrs by two-fold broth dilution method. To be noted: NBRC 3851, 24 h. Format: functional.
A further assay has as its system Bacillus spizizenii. Kind of assay: Antimicrobial activity against Bacillus subtilis ATCC 6633 after 24 hrs by two-fold broth dilution method. The assay is classed as functional. To be noted: ATCC 6633, 24 h.
The test system of another assay is Staphylococcus aureus. Kind of assay: Antimicrobial activity against Staphylococcus aureus ATCC 6538p after 24 hrs by two-fold broth dilution method. The assay is classed as functional.
Another assay concerns Escherichia coli. Kind of assay: Antimicrobial activity against Escherichia coli ATCC 35270 after 24 hrs by two-fold broth dilution method. Format: functional. To be noted: ATCC 35270, 24 h.
Another assay relates to A549. Kind of assay: Cytotoxicity against human A549 cells. The assay is classed as functional. To be noted: read-out: LC50 (the source's name).
A short description of assay [1]: Inhibition of sortase A (unknown origin).
The test system of a further assay is K562. In words: Cytotoxicity against human K562 cells. To be noted: read-out: LC50 (the source's name). The assay is classed as functional.
Another assay has as its system Kocuria rhizophila. In words: Antimicrobial activity against Kocuria rhizophila NBRC 12708 after 24 hrs by two-fold broth dilution method. The assay is classed as functional. To be noted: NBRC 12708, 24 h.
For another assay, the system named is Pyricularia grisea. In words: Inhibition of Magnaporthe grisea Guy 11 isocitrate lyase.

For `CC1(C)CCC[C@]2(C)[C@H]3CC/C(=C\OS(=O)(=O)[O-])[C@H](CCc4ccoc4)[C@@]3(C)CC[C@@H]12.CN(C)c1n(C)c(=O)c2c([n+]1C)N(C)CN2C` [listing 1 of 2 here], the MIC in the assay with Salmonella enterica is 0.78 µg/mL; with Proteus hauseri, 6.25 µg/mL; against Bacillus spizizenii, 0.78 µg/mL; against Staphylococcus aureus, 6.25 µg/mL; with Escherichia coli, over 100 µg/mL; in the assay on Kocuria rhizophila it was 6.25 µg/mL. Further, the figures for the CC50 in the assay with A549 and with K562 were 1.9 µg/mL and 2.2 µg/mL, respectively. In [1], this molecule returned an IC50 of over 100 µM.

In the case of `CC1(C)CCC[C@]2(C)[C@H]3CC/C(=C\OS(=O)(=O)[O-])[C@H](CCC4=CCN(CC(=O)O)C4=O)[C@@]3(C)CC[C@@H]12.[Na+]`, the MIC in the assay on Salmonella enterica was over 100 µg/mL; in the assay on Proteus hauseri, over 100 µg/mL; in the assay with Bacillus spizizenii it was over 100 µg/mL; in the assay on Staphylococcus aureus, over 100 µg/mL; in the assay with Escherichia coli it was over 100 µg/mL; against Pyricularia grisea, 62 µg/mL. For the same molecule, the MIC with Kocuria rhizophila was over 100 µg/mL. For the same molecule, the CC50 in the assay on A549 stood at 1.4 µg/mL; in the assay on K562, 1.3 µg/mL. Also, the IC50 in assay [1] is over 100 µM.

With `C[C@H](C(=O)O)N1CC=C(CC[C@H]2/C(=C/OS(=O)(=O)[O-])CC[C@H]3[C@]2(C)CC[C@H]2C(C)(C)CCC[C@]32C)C1=O.[Na+]`, the MIC with Salmonella enterica is 50 µg/mL; against Proteus hauseri it was over 100 µg/mL; in the assay on Bacillus spizizenii, over 100 µg/mL; in the assay with Staphylococcus aureus, over 100 µg/mL; against Escherichia coli it was over 100 µg/mL; in the assay with Pyricularia grisea it was 48 µg/mL. Moreover, the MIC in the assay on Kocuria rhizophila is over 100 µg/mL. For the same molecule, the CC50 in the assay with A549 is 1.1 µg/mL; in the assay with K562, 1.9 µg/mL. Moreover, the IC50 in [1] was over 100 µM.

For the molecule `C/C(=C/C(=O)NCCS(=O)(=O)[O-])CCCCC[C@H](C)O.[Na+]`, the MIC in the assay with Salmonella enterica, against Staphylococcus aureus and against Pyricularia grisea was over 100 µg/mL in each case. The CC50 in the assay with A549 and in the assay on K562 was over 100 µg/mL in each case. This molecule also yielded a half-maximal inhibitory concentration (IC50) in assay [1] of over 100 µM.

Regarding `CC1(C)CCC[C@]2(C)[C@H]3CC/C(=C\OS(=O)(=O)[O-])[C@H](CCC4=CC(=O)N(CCS(=O)(=O)O)C4)[C@@]3(C)CC[C@@H]12.[Na+]`, the MIC was over 100 µg/mL with Salmonella enterica; over 100 µg/mL in the assay on Proteus hauseri; over 100 µg/mL with Bacillus spizizenii; over 100 µg/mL against Staphylococcus aureus; over 100 µg/mL in the assay on Escherichia coli; 50 µg/mL with Pyricularia grisea. The MIC with Kocuria rhizophila is over 100 µg/mL. The CC50 was 3.5 µg/mL in the assay with A549 and 3.6 µg/mL with K562. In assay [1], this molecule yielded a half-maximal inhibitory concentration (IC50) of over 100 µM.

On to `CC(C)[C@@H](C(=O)O)N1CC(CC[C@H]2/C(=C/OS(=O)(=O)[O-])CC[C@H]3[C@]2(C)CC[C@H]2C(C)(C)CCC[C@]32C)=CC1=O.[Na+]`, for which the MIC against Salmonella enterica is 100 µg/mL; against Proteus hauseri, over 100 µg/mL; with Bacillus spizizenii, over 100 µg/mL; in the assay on Staphylococcus aureus, over 100 µg/mL; in the assay with Escherichia coli it was over 100 µg/mL; in the assay on Pyricularia grisea, 64 µg/mL. This molecule registered an MIC in the assay on Kocuria rhizophila of over 100 µg/mL. The CC50 with A549 is 1.9 µg/mL; with K562 it was 3.9 µg/mL. The IC50 in assay [1] is over 100 µM.

In the case of `CC1(C)S[C@@H]2[C@H](NC(=O)[C@H](N)c3ccccc3)C(=O)N2[C@H]1C(=O)O` [AMPICILLIN], the MIC was determined as 0.39 µg/mL (≈ 1.12 µM) in the assay on Salmonella enterica; 0.78 µg/mL (≈ 2.23 µM) with Proteus hauseri; 0.39 µg/mL (≈ 1.12 µM) against Bacillus spizizenii; 0.39 µg/mL (≈ 1.12 µM) in the assay with Staphylococcus aureus; 3.12 µg/mL (≈ 8.93 µM) in the assay on Escherichia coli; 0.39 µg/mL (≈ 1.12 µM) against Kocuria rhizophila. Moreover, the IC50 in [1] is over 100 µM.

The molecule `CC1(C)CCC[C@]2(C)[C@H]3CC/C(=C\OS(=O)(=O)[O-])[C@H](CCc4ccoc4)[C@@]3(C)CC[C@@H]12.CN(C)c1n(C)c(=O)c2c([n+]1C)N(C)CN2C` [listing 2 of 2 here] came in with an MIC against Pyricularia grisea of 28 µg/mL.

As to `C[C@@H]1O[C@@H](O[C@H]2C[C@@H](O)[C@]3(CO)[C@H]4[C@H](O)C[C@]5(C)[C@@H](C6=CC(=O)OC6)CC[C@]5(O)[C@@H]4CC[C@]3(O)C2)[C@H](O)[C@H](O)[C@H]1O` [OUABAIN], in assay [1], the IC50 was over 100 µM.

As for `CC(=O)CCCCC/C(C)=C\C(=O)NCCS(=O)(=O)O`, the MIC in the assay with Salmonella enterica, against Proteus hauseri, against Bacillus spizizenii, against Staphylococcus aureus, against Escherichia coli and against Pyricularia grisea was over 100 µg/mL throughout. In addition, the MIC in the assay on Kocuria rhizophila is over 100 µg/mL. Besides, the CC50 in the assay with A549 and in the assay on K562 was over 100 µg/mL throughout. Further, in assay [1], the IC50 is over 100 µM.

Molecule `CC1(C)CCC[C@]2(C)[C@H]3CC/C(=C\OS(=O)(=O)[O-])[C@H](CCc4ccoc4)[C@@]3(C)CC[C@@H]12.C[N+](C)=C(N)N` registered an MIC in the assay on Pyricularia grisea of 51 µg/mL.

In the case of `CC1(C)CCC[C@]2(C)[C@H]3CC/C(=C\OS(=O)(=O)[O-])[C@H](CCc4ccoc4)[C@@]3(C)CC[C@@H]12.C[N+](C)=C(N)N` [SUVANINE], the MIC is 25 µg/mL against Salmonella enterica; 100 µg/mL against Proteus hauseri; 12.5 µg/mL with Bacillus spizizenii; over 100 µg/mL with Staphylococcus aureus; over 100 µg/mL against Escherichia coli; over 100 µg/mL in the assay with Kocuria rhizophila. The values for the CC50 with A549 and in the assay on K562 were 1.7 µg/mL and 0.9 µg/mL, respectively. The IC50 in assay [1] was over 100 µM.

For the molecule `C[S+]([O-])CCCN1CC=C(CC[C@H]2/C(=C/OS(=O)(=O)[O-])CC[C@H]3[C@]2(C)CC[C@H]2C(C)(C)CCC[C@]32C)C1=O.[Na+]` (stereo not given in full), the MIC is 50 µg/mL against Salmonella enterica, over 100 µg/mL against Staphylococcus aureus and 24 µg/mL against Pyricularia grisea. Moreover, the CC50 in the assay on A549 was 5.5 µg/mL; with K562 it was 3.9 µg/mL. Moreover, the half-maximal inhibitory concentration (IC50) in [1] was over 100 µM.

Regarding `CC1(C)CCC[C@]2(C)[C@H]3CC/C(=C\OS(=O)(=O)[O-])[C@H](CCC4=CCN(CCS(=O)(=O)O)C4=O)[C@@]3(C)CC[C@@H]12.[Na+]`, the MIC in the assay with Salmonella enterica was over 100 µg/mL; in the assay with Proteus hauseri, over 100 µg/mL; against Bacillus spizizenii, over 100 µg/mL; against Staphylococcus aureus, over 100 µg/mL; against Escherichia coli it was over 100 µg/mL; in the assay with Pyricularia grisea, 90 µg/mL. In addition, the MIC against Kocuria rhizophila was over 100 µg/mL. Further, the CC50 in the assay with A549 is 2 µg/mL; with K562, 4.6 µg/mL. In [1], this molecule showed an IC50 of over 100 µM.

`O=C(O)CC[N+](=O)[O-]` returned an IC50 in [1] of over 100 µM. The molecule further displayed an MIC with Pyricularia grisea of 2.5 µg/mL (≈ 21 µM).

As for `COc1cccc2c1C(=O)c1c(O)c3c(c(O)c1C2=O)C[C@@](O)(C(=O)CO)C[C@@H]3O[C@H]1C[C@H](N)[C@H](O)[C@H](C)O1` [DOXORUBICIN], the CC50 came out at 0.8 µg/mL (≈ 1.47 µM) in the assay on A549 and 0.7 µg/mL (≈ 1.29 µM) in the assay with K562. In addition, in assay [1], the IC50 is over 100 µM.
